Data: US20230097293A1, “LMP1 TARGETING LANTHANIDE COMPLEXES AND METHODS OF USE THEREOF” (BP InnoMed Limited, priority 2021, published 2023)
Where a SMILES comes first, the peptide text is derived from it. [ ]: non-standard residue; d: D form. dPra = C#CC[C@@H](N)C(=O)O; Ahx = NCCCCCC(=O)O

Tests used:
Format in all cases: cell-based
[1] = system: weakly LMP1-positive (C666-1) and LMP1-negative cell lines (HeLa, MRCS); assay: MTT cytotoxicity assay, weakly LMP1-positive or LMP1-negative cells
Description: (§1) To study the effects of the designed probes on cell survival, the MTT cytotoxicity assay was carried out in several highly LMP1-positive (LCL3, AFB1, AG876), weakly LMP1-positive (C666-1) and LMP1- negative cell lines (HeLa, MRCS), as shown in FIG. 9.
(§2) LCL3, AG876, AFB1 and C666-1 cells were grown in RPMI-1640 medium. HeLa cells were cultivated in DMEM medium and MRCS cells are cultivated in MEM medium (Gibco, USA). All media are supplemented with 10% fetal bovine serum and 1% penicillin/streptomycin antibiotics. All the cells are cultivated in a humidified incubator with 5% CO2 at 37° C. The pTRE-EGFP plasmid was transduced into LCL3 cells as previously mentioned.

NF-κB p65 = assay: Immunofluorescence imaging of NF-κB p65 after TNFα activation; details: for effect on p65 fluorescence signal: LCL3, 10 μM, 24 h, TNFα 10 ng/ml preincubation
Description: (§3) We then investigate the inhibitory effects of our anti-LMP1 conjugates on the NF-κB pathway, which is one of the major pathways that EBV has hijacked for promoting cell growth and proliferation in EBV-associated tumours. Since NF-κB is typically activated by the canonical pathway which involves the nuclear translocation of the heterodimer of p50 and p65, immunofluorescence imaging of NF-κB p65 was then performed. Tumour necrosis factor alpha (TNFα) was added to these tumour cells, so as to activate the NF-κB pathway.
These assays were prepared and conducted at room temperature, unless otherwise stated. Cells with different treatment were fixed by formalin for 15 min. The samples were then washed with PBS and 0.2% Triton-X buffer was added onto the samples for 15 min. 3% BSA in PBS was served as the blocking buffer and applied onto the sample for 30 minutes at room temperature. The primary antibody was diluted in blocking buffer and added onto the sample at 4° C. overnight. The samples were washed with PBS and corresponding secondary antibodies were added over 1 h. Samples were washed with PBS and mountant was applied to each sample. Images were acquired either using a 370 nm laser excitation or from a 370 nm LED excitation of a Nikon Eclipse Ti2 Confocal Microscope. NIR images were captured by a NIRvana TE 640 camera. The signal enhancement of the C666-1 images were obtained by enhancing the exposure of the captured images by the NIS element AR software. Multiphoton microscopy was conducted by Leica TCS SP8 MP System.

NF-κB activity = assay: pTRE-EGFP reporter of NF-κB activity in LCL3 cells; details: LCL3, 6 hours
Description: as §3
The antibodies including anti-LMP1 were purchased from Kerafast, while anti-NF-κB p65, anti-NF-κB p105/50, anti-histone H3, anti-GAPDH were purchased from Cell Signaling Technology. Anti-rabbit IgG HRP-linked, anti-mouse IgG HRP-linked, protease/phosphatase inhibitor cocktail were purchased from Cell Signaling Technology. Alexa Fluor 488-conjugated goat anti-mouse IgG, NucBlue fixed cell ready probes (DAPI), and ProLong gold antifade mountant with DAPI were purchased from Invitrogen. The transcriptional response element (TRE)-fluorescent protein reporter, pTRE-EGFP plasmid, was constructed as previously reported.
LCL3, AG876, AFB1 and C666-1 cells were grown in RPMI-1640 medium. HeLa cells were cultivated in DMEM medium and MRCS cells are cultivated in MEM medium (Gibco, USA). All media are supplemented with 10% fetal bovine serum and 1% penicillin/streptomycin antibiotics. […]

NF-κB p65 and p50 = assay: Western blot of nuclear NF-κB p65 and p50; details: for nuclear p65 and p50 expression: LCL3 and AFB1, TNFα 10 ng/mL pre-treatment, compared with control
Description: Western blot analysis was also carried out to validate the above imaging results for the components in NF-κB pathway. The LMP1-overexpressing LCL3 and AFB1 cell lines were used for this analysis. […] After 24 hours incubation, the nuclear extracts were separated for each treatment, and the expression of NF-κB p65 and p50 was detected by Western blot analysis. […] Western blots of individual replicates for NF-κB p65 and p50 in different cell lines were illustrated in FIG. 14. […] The reduction in NF-κB activity can contribute to the cytotoxicity of the three compounds towards LMP1-overexpressing cells.
Cells with different treatments were harvested and washed with phosphate-buffered saline (PBS). Lysis buffer supplied by 1X proteases-phosphatase inhibitor were added into the cells for 5 min on ice. Then the samples were centrifuged at 14,000×g at 4° C. for 20 minutes. The fractionated cell lysates were subjected to SDS-PAGE gel and transferred onto PVDF membranes. Membranes were then blocked by 3% non-fat milk for 30 minutes at room temperature and incubated with specific primary antibodies at 4° C. overnight. They were then washed with TBST buffer and incubated with corresponding secondary antibodies for 1 h at room temperature. Then, the membranes were washed with TBST, and chemiluminescence substrate was added onto the membrane surface. ChemiDoc XRS system and Image Lab Software were used to visualize the blot.

[2] = MTT cytotoxicity assay, all selected cell lines; details: read-out: LC50 (the source's name)
Description: as §1, §2

Structure (SMILES) | cytotoxicity [1] | effect on p65 fluorescence signal (NF-κB p65) | effect on NF-κB pathway (p65 fluorescence) (NF-κB p65; LMP1-negative HeLa and weak LMP1-expressing C666-1 cells) | GFP reporter signals (NF-κB activity) | changes in expression of p65 and p50 (NF-κB p65 and p50; C666-1 and HeLa cells) | nuclear p65 and p50 expression (NF-κB p65 and p50) | CC50 [2] [µM]
C#CC[C@@H](N)C(=O)N[C@@H](CCCCN)C(=O)NCCCCCC(=O)N[C@@H](CCCCN)C(=O)N[C@@H](CC(C)C)C(=O)N[C@@H](CC(=O)O)C(=O)N[C@@H](CC(C)C)C(=O)N[C@@H](C)C(=O)N[C@@H](CC(C)C)C(=O)N[C@@H](CCCCN)C(=O)N[C@@H](Cc1ccccc1)C(=O)N[C@@H](Cc1c[nH]c2ccccc12)C(=O)N[C@@H](CC(C)C)C(=O)N[C@@H](Cc1ccc(O)cc1)C(=O)N[C@@H](CCCCN)C(=O)N[C@H](C(=O)N[C@H](C(=O)N[C@@H](CCSC)C(=O)N[C@@H](CO)C(=O)N[C@@H](CC(=O)O)C(=O)N[C@@H](CCCCN)C(=O)N[C@@H](Cc1c[nH]c2ccccc12)C(=O)N[C@@H](CCCCN)C(=O)N[C@@H](CCCNC(=N)N)C(=O)N[C@H](CCCNC(=N)N)C(=O)N[C@@H](CCCNC(=N)N)C(=O)N[C@@H](CCCCN)C(=O)O)C(C)C)[C@@H](C)CC [P19, Pra-KAhx-K-LDLALK-FWLY-K-IVMSDKW-K-RrRK] (H-[dPra]K[Ahx]KLDLALKFWLYKIVMSDKWKR[dR]RK-OH; N-terminus and C-terminus assumed) | relatively low | significant suppression | did not exhibit any effect | decreased | relatively minor | significantly weakened | –
C#CC[C@@H](N)C(=O)N[C@@H](CCCCN)C(=O)NCCCCCC(=O)N[C@@H](CCCCN)C(=O)N[C@@H](CC(C)C)C(=O)N[C@@H](CC(=O)O)C(=O)N[C@@H](CC(C)C)C(=O)N[C@@H](C)C(=O)N[C@@H](CC(C)C)C(=O)N[C@@H](CCCCN)C(=O)N[C@@H](C)C(=O)N[C@@H](C)C(=O)N[C@@H](C)C(=O)N[C@@H](C)C(=O)N[C@@H](CCCCN)C(=O)N[C@H](C(=O)N[C@H](C(=O)N[C@@H](CCSC)C(=O)N[C@@H](CO)C(=O)N[C@@H](CC(=O)O)C(=O)N[C@@H](CCCCN)C(=O)N[C@@H](Cc1c[nH]c2ccccc12)C(=O)N[C@@H](CCCCN)C(=O)N[C@@H](CCCNC(=N)N)C(=O)N[C@H](CCCNC(=N)N)C(=O)N[C@@H](CCCNC(=N)N)C(=O)N[C@@H](CCCCN)C(=O)O)C(C)C)[C@@H](C)CC [P19C, reference compound] (H-[dPra]K[Ahx]KLDLALKAAAAKIVMSDKWKR[dR]RK-OH; N-terminus and C-terminus assumed) | – | no significant effect | – | – | – | no obvious change | > 200
